Experimental data: patent US11713338B2, “Cyclic peptides multimers targeting α-4-β-7 integrin” (priority 2016, dated 2023)

How the values were obtained:
[1] = target: T1, recombinant integrin α4β1 (Homo sapiens, UniProt P05556+P13612); test: Integrin α4β1—VCAM-1 competition ELISA; type: binding; details: read-out: ELISA a4b1 Assay IC50
T1 construct: purchased R&D Systems 5397-A3-050
Description: Integrin α4β1—VCAM-1 Competition ELISA
The plate was incubated at 4° C. overnight. […] The plate was then incubated for 1 hour at room temperature. The plate was washed three times with wash buffer (50 mM Tris, 100 mM NaCl, 1 mM MnCl2, 0.05% Tween). To each well, 50 μl of compound diluted in assay buffer was added by transfer from a compound serial dilution plate. […] The plate was incubated at room temperature with shaking (300 rpm) for 2 hours to reach binding equilibrium. Then the plate was washed three times in wash buffer and 100 μl anti-human IgG Fc specific-HRP (Abcam, Ab97225) diluted at 1:2000 in assay buffer was added to each well. The plate was incubated at room temperature for 1 hour under agitation.

[2] = target: T2, recombinant integrin α4β7 (Homo sapiens, UniProt P13612+P26010, DEL724-798); test: Integrin α4β7—MAdCAM-1 ELISA competition assay; type: binding; details: for ELISA Assay Ratio b1/b7: ratio of a4b1 to a4b7 ELISA IC50; for IC50: read-out: ELISA a4b7 Assay IC50
T2 construct: purchased R&D Systems 5397-A3-050
T2 sequence (P13612 34-970 limits assumed): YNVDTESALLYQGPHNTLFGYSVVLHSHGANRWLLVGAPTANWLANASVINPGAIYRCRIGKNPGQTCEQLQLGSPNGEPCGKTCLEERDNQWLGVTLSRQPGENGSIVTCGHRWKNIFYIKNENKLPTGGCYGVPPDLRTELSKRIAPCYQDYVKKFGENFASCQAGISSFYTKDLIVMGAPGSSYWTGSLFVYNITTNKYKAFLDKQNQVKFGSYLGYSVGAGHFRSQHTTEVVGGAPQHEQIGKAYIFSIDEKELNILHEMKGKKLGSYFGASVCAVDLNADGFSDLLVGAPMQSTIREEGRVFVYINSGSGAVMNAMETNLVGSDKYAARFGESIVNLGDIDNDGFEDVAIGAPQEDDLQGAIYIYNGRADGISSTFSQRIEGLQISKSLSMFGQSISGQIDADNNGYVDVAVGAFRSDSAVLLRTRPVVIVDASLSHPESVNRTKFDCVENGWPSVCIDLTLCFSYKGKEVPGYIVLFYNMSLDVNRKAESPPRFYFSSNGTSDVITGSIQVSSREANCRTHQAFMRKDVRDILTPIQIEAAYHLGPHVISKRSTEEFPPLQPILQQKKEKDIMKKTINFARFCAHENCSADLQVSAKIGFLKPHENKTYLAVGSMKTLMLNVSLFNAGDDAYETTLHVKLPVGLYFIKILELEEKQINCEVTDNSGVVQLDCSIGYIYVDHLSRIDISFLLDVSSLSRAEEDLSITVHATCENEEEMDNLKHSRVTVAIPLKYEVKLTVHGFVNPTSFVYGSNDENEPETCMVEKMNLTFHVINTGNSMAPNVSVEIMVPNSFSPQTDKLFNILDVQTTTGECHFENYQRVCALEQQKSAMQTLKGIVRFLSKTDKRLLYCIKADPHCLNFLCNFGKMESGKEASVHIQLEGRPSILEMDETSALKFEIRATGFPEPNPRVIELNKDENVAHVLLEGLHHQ
T2 sequence (P26010 20-723 limits assumed): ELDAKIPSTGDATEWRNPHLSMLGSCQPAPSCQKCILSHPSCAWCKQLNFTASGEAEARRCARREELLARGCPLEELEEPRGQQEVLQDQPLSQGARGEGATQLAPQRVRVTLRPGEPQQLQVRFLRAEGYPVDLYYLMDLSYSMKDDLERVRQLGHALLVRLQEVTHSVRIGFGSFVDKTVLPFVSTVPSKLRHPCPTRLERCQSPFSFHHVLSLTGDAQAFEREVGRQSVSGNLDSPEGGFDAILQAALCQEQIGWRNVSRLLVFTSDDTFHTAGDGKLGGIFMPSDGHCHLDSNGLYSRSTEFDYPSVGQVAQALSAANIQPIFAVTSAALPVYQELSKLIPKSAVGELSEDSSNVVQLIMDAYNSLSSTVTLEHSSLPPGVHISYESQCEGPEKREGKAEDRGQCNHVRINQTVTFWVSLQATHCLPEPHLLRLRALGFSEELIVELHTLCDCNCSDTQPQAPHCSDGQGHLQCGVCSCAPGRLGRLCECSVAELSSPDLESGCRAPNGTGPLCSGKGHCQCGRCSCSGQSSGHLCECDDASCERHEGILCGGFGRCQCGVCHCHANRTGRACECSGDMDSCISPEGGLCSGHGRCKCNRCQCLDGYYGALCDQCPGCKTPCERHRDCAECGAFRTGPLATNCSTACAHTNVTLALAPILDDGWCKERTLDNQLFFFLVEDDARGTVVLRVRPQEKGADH

T1 sequence (P05556 21-728 limits assumed, one chain of several): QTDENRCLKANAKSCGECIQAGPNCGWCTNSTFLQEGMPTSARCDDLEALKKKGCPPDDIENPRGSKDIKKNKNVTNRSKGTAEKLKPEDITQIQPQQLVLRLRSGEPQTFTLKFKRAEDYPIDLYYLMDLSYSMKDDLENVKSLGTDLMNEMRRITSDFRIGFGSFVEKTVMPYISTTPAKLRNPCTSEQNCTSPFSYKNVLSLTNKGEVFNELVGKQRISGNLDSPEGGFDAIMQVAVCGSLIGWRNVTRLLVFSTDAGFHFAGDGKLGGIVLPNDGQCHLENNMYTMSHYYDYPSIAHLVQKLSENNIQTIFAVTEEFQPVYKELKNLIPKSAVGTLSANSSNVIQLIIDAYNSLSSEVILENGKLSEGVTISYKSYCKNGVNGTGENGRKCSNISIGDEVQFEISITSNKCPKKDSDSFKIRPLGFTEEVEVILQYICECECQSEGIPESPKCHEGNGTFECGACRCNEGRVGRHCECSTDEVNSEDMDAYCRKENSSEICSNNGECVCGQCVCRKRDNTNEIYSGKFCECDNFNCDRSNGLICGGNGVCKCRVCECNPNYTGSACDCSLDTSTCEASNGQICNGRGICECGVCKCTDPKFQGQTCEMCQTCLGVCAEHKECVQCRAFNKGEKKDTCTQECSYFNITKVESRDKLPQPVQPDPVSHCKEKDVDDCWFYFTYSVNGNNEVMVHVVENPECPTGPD

| Compound | IC50 [1] [nM] | ELISA Assay Ratio b1/b7 [2] | IC50 [2] [nM] |
| --- | --- | --- | --- |
| CC(C)C[C@@H]1NC(=O)CN(C)C(=O)[C@H](Cc2csc(-c3ccccn3)n2)NC(=O)[C@@H]2CCCN2[C@H](C(=O)NC(C)(C)C)[C@H](C)NC(=O)[C@H]([C@@H](C)O)NC(=O)[C@H](CC(=O)O)NC1=O [Compound 179] | 2660 | 15.2 | – |
| CC[C@H](C)[C@@H]1NC(=O)[C@H](CC(=O)O)NC(=O)[C@H](CC(C)C)NC(=O)C[C@H](CCCCN)NC(=O)[C@@H](Cc2ccc(CN)cc2)NC(=O)[C@@H]2CCCN2[C@H](C(=O)NC(C)(C)C)[C@H](C)NC1=O [Compound 253] | 1090 | 15.6 | 69 |
| CC(C)C[C@@H]1NC(=O)C[C@H](CCCCN)NC(=O)[C@](C)(Cc2ccccc2)NC(=O)[C@@H]2CCCN2[C@H](C(=O)NC(C)(C)C)[C@H](C)NC(=O)[C@H]([C@@H](C)O)NC(=O)[C@H](CC(=O)O)NC1=O [Compound 263] | 2350 | 23.1 | 102 |
| COc1ccc(C[C@@H]2NC(=O)[C@@H]3CCCN3[C@H](C(=O)NC(C)(C)C)[C@H](C)NC(=O)[C@H]([C@@H](C)O)NC(=O)[C@H](CC(=O)O)NC(=O)[C@H](CC(C)C)NC(=O)[C@H]3CCCN3C2=O)cc1OC [Compound 127] | 196 | 7.8 | 25 |
| C[C@@H]1NC(=O)[C@H]([C@@H](C)O)NC(=O)[C@H](CC(=O)O)NC(=O)[C@H](CC(C)(C)C)NC(=O)[C@H]2CCCCN2C(=O)[C@H](Cc2ccc(O)cc2)NC(=O)[C@@H]2CCCN2[C@@H]1C(=O)NC(C)(C)C [Compound 150] | 447 | 8.2 | 54 |
| CC(C)C[C@@H]1NC(=O)C[C@H](CCCCN)NC(=O)[C@H](CC2CCCCC2)NC(=O)[C@@H]2CCCN2[C@H](C(=O)NC(C)(C)C)[C@H](C)NC(=O)[C@H]([C@@H](C)O)NC(=O)[C@H](CC(=O)O)NC1=O [Compound 210] | 1150 | 16.0 | 72 |
| CC(C)C[C@@H]1NC(=O)[C@H](Cc2csc(-c3ccccn3)n2)NC(=O)[C@@H]2CCCN2[C@H](C(=O)NC(C)(C)C)[C@H](C)NC(=O)[C@H]([C@@H](C)O)NC(=O)[C@H](CC(=O)O)NC1=O [Compound 95] | 303 | 2.4 | 125 |
| CC(C)C[C@@H]1NC(=O)[C@H](Cc2c[nH]cn2)NC(=O)[C@@H]2CCCN2[C@H](C(=O)NC(C)(C)C)[C@@H](CSc2ccccc2)NC(=O)[C@H](C(C)C)NC(=O)[C@H](CC(=O)O)NC1=O [Compound 2] | 185 | 1.697 | – |
| CC(C)C[C@@H]1NC(=O)[C@H]2C[C@H](O)CN2C(=O)[C@H](Cc2cscn2)NC(=O)[C@@H]2CCCN2[C@H](C(=O)NC(C)(C)C)[C@H](C)NC(=O)[C@H]([C@@H](C)O)NC(=O)[C@H](CC(=O)O)NC1=O [Compound 151] | 218 | 4.1 | 53 |
| CC(C)C[C@@H]1NC(=O)[C@H]2CCCCN2C(=O)[C@H](Cc2ccc(-c3ccccc3)cc2)NC(=O)[C@@H]2CCCN2[C@H](C(=O)NC(C)(C)C)[C@H](C)NC(=O)[C@H]([C@@H](C)O)NC(=O)[C@H](CC(=O)O)NC1=O [Compound 138] | 118 | 5.0 | 24 |
| CC(C)C[C@@H]1NC(=O)[C@H]2C[C@H](O)CN2C(=O)[C@H](Cc2ccc(CN)cc2)NC(=O)[C@@H]2CCCN2[C@H](C(=O)NC(C)(C)C)[C@H](C)NC(=O)[C@H]([C@@H](C)O)NC(=O)[C@H](CC(=O)O)NC1=O [Compound 152] | 1350 | 13.2 | 102 |
| CC(C)C[C@@H]1NC(=O)CN(C)C(=O)[C@H](Cc2ccc(I)cc2)NC(=O)[C@@H]2CCCN2[C@H](C(=O)NC(C)(C)C)[C@H](C)NC(=O)[C@H]([C@@H](C)O)NC(=O)[C@H](CC(=O)O)NC1=O [Compound 107] | 2390 | 16.0 | 150 |
| CC(C)C[C@@H]1NC(=O)c2cc(cc(-c3ccncc3)c2)CNC(=O)[C@@H]2CCCN2[C@H](C(=O)NC(C)(C)C)[C@H](C)NC(=O)[C@H]([C@@H](C)O)NC(=O)[C@H](CC(=O)O)NC1=O [Compound 362] | 238 | 5.6 | 43 |
| CC(C)C[C@@H]1NC(=O)c2cccc(c2)CNC(=O)[C@@H]2CCCN2[C@H](C(=O)NC(C)(C)C)[C@H](C)NC(=O)[C@H]([C@@H](C)O)NC(=O)[C@H](CC(=O)O)NC1=O [Compound 358] | 1110 | 8.7 | 127 |
| CC(C)C[C@@H]1NC(=O)C2(Cc3ccccc3C2)NC(=O)[C@@H]2CCCN2[C@H](C(=O)NC(C)(C)C)[C@H](C)NC(=O)[C@H]([C@@H](C)O)NC(=O)[C@H](CC(=O)O)NC1=O [Compound 89] | 232 | 14.4 | 16 |
| CC(C)C[C@@H]1NC(=O)[C@H]2C[C@@H](O)CN2C(=O)[C@H](Cc2ccc(O)cc2)NC(=O)[C@@H]2CCCN2[C@H](C(=O)NC(C)(C)C)[C@H](C)NC(=O)[C@H]([C@@H](C)O)NC(=O)[C@H](CC(=O)O)NC1=O [Compound 141] | 36 | 2.0 | 19 |
| CC(C)C[C@@H]1NC(=O)[C@H](Cc2cccc3ccccc23)NC(=O)[C@@H]2CCCN2[C@H](C(=O)NC(C)(C)C)[C@H](C)NC(=O)[C@H]([C@@H](C)O)NC(=O)[C@H](CC(=O)O)NC1=O [Compound 9] | 106 | 1.7 | 61 |
| C=CCOc1ccc(C[C@@H]2NC(=O)[C@@H]3CCCN3[C@H](C(=O)NC(C)(C)C)[C@H](C)NC(=O)[C@H]([C@@H](C)O)NC(=O)[C@H](CC(=O)O)NC(=O)[C@H](CC(C)C)NC(=O)[C@@H](C(C)C)NC2=O)cc1 [Compound 166] | 1380 | 7.7 | 179 |
| CC(C)C[C@@H]1NC(=O)[C@H](Cc2ccc(O)cc2)NC(=O)[C@@H]2CCCN2[C@H](C(=O)NC(C)(C)C)[C@H](C)NC(=O)[C@H](C(C)(C)S)NC(=O)[C@H](CC(=O)O)NC1=O [Compound 55] | 119 | 1.1 | 113 |
| CC(C)C[C@@H]1NC(=O)CN(C)C(=O)[C@H](Cc2cccc3ccccc23)NC(=O)[C@@H]2CCCN2[C@H](C(=O)NC(C)(C)C)[C@H](C)NC(=O)[C@H]([C@@H](C)O)NC(=O)[C@H](CC(=O)O)NC1=O [Compound 117] | 1380 | 8.7 | 158 |
| COc1ccccc1-c1ccccc1C[C@@H]1NC(=O)[C@@H]2CCCN2[C@H](C(=O)NC(C)(C)C)[C@H](C)NC(=O)[C@H]([C@@H](C)O)NC(=O)[C@H](CC(=O)O)NC(=O)[C@H](CC(C)C)NC(=O)[C@H]2CCCCN2C1=O [Compound 135] | 119 | 4.9 | 24 |
